Values quoted from earlier work in patent US8846088B2, “Melt granulation of a composition containing a calcium-containing compound” (Takeda Nycomed AS, priority 2005, dated 2014).

Tested on: elderly patients
Settings: annual injections of 150.000-300.000 IU

## vitamin D
  overall fracture rate: significant reduction in overall fracture rate
  rate of hip fracture: not in the rate of hip fracture
